This is an account of results in US20240415834A1, “LURBINECTEDIN AND ATEZOLIZUMAB COMBINATIONS” (priority 2021, published 2024).

Where two headings read alike, the source gives them in different places.

The subject of one series is A-549. Description: MTT short-term viability assay, 72 hours exposure. It is filed as cell-based. Particulars: Homo sapiens, A549, Lung, read-out: IG50 (the source's name). As for the experimental part:
(§1) The antineoplastic in vitro activity of lurbinectedin was evaluated in a panel of solid tumour cell lines (some of which are shown in Table 1), which were exposed to a range of lurbinectedin concentrations for 72 hours and then assayed for viability by a MTT short-term assay.

Another series concerns A2780. Description: MTT short-term viability assay, 72 hours exposure. It counts as cell-based. The note with it: Homo sapiens, Ovarian, read-out: IG50 (the source's name). As for the experimental part:
as §1

In the next series the test system is BT-474. Nature of the series: MTT short-term viability assay, 72 hours exposure. It counts as cell-based. Particulars: Homo sapiens, Breast, read-out: IG50 (the source's name). As for the experimental part:
as §1

In the next series the test system is HCT 116. Nature of the series: MTT short-term viability assay, 72 hours exposure. It counts as cell-based. The note with it: Homo sapiens, Colon, read-out: IG50 (the source's name). On the procedure:
as §1

For a further series, the system named is HT-29. Nature of the series: MTT short-term viability assay, 72 hours exposure. It counts as cell-based. Particulars: Homo sapiens, Colon, read-out: IG50 (the source's name). On the procedure:
as §1

In the next series the test system is IGROV-1. Description: MTT short-term viability assay, 72 hours exposure. Particulars: Homo sapiens, Ovarian, read-out: IG50 (the source's name). It is filed as cell-based. As for the experimental part:
as §1

The next series deals with LoVo. Nature of the series: MTT short-term viability assay, 72 hours exposure. It is filed as cell-based. The note with it: Homo sapiens, Colon, read-out: IG50 (the source's name). As for the experimental part: as §1
A further series has as its system MCF-7. Nature of the series: MTT short-term viability assay, 72 hours exposure. It counts as cell-based. The note with it: Homo sapiens, MCF7, Breast, read-out: IG50 (the source's name). On the procedure:
as §1

In a further series the test system is MDA-MB-231. Description: MTT short-term viability assay, 72 hours exposure. The note with it: Homo sapiens, Breast, read-out: IG50 (the source's name). It counts as cell-based. As for the experimental part:
as §1

The subject of another series is MiaPaca-2. Nature of the series: MTT short-term viability assay, 72 hours exposure. It is filed as cell-based. The note with it: Homo sapiens, MIA PaCa-2, Pancreas, read-out: IG50 (the source's name). On the procedure:
as §1

Another series relates to NCl-H23. Nature of the series: MTT short-term viability assay, 72 hours exposure. It is filed as cell-based. Particulars: Lung, read-out: IG50 (the source's name). On the procedure: as §1
In another series the test system is NCl-H460. Description: MTT short-term viability assay, 72 hours exposure. It counts as cell-based. Particulars: Lung, read-out: IG50 (the source's name). As for the experimental part: as §1
In another series the test system is PANC-1. Nature of the series: MTT short-term viability assay, 72 hours exposure. It counts as cell-based. The note with it: Homo sapiens, Pancreas, read-out: IG50 (the source's name). As for the experimental part: as §1
Series [1] relates to broad selection of tumour-derived cell lines. Nature of the series: In vitro cytotoxic effects against tumour-derived cell lines. The note with it: read-out: median IC50. It counts as cell-based.
The subject of another series is LXFL 529 lung xenograft. Nature of the series: In vivo antitumour activity in xenografts. Details: species or system athymic mice. The note with it: Lung LXFL 529; Q7d × 3; 0.18 mg/kg/day (0.54 mg/m^2/day); optimal day D-28.
Series [2] relates to UM-UC-3 bladder xenograft. Nature of the series: In vivo antitumour activity in xenografts. Details: species or system athymic mice. Particulars: Bladder UM-UC-3; Qd × 5 × 2; 0.06 mg/kg/day (0.18 mg/m^2/day); optimal day D-23.
Series [3] concerns MDA-MB-231 breast xenograft. Nature of the series: In vivo antitumour activity in xenografts. More on the design: species or system athymic mice. Particulars: Breast MDA-MB-231; Q7d × 3; 0.18 mg/kg/day (0.54 mg/m^2/day); optimal day D-34.
Another series deals with MX-1 breast xenograft. Description: In vivo antitumour activity in xenografts. More on the design: species or system athymic mice. Particulars: Breast MX-1; Q7d × 3; 0.18 mg/kg/day (0.54 mg/m^2/day); optimal day D-21.
In another series the test system is A2780 ovary xenograft. Description: In vivo antitumour activity in xenografts. The note with it: Q7d × 3, 0.18 mg/kg/day (0.54 mg/m^2/day), optimal day D-17. More on the design: species or system athymic mice.
Series [4] concerns Capan-1 pancreas xenograft. Nature of the series: In vivo antitumour activity in xenografts. Details: species or system athymic mice. The note with it: Pancreas Capan-1; Q7d × 3; 0.18 mg/kg/day (0.54 mg/m^2/day); optimal day D-61.
A further series deals with PC-3 prostate xenograft. Description: In vivo antitumour activity in xenografts. More on the design: species or system athymic mice. The note with it: Prostate PC-3; Q7d × 3; 0.18 mg/kg/day (0.54 mg/m^2/day); optimal day D-27.
The test system of series [5] is human-derived tumour xenografts. Nature of the series: Tumour susceptibility in xenografts of human-derived tumour types. Particulars: single bolus i.v. at rodent MTD 0.3 mg/kg. It is filed as in vivo, athymic mice.
Series [6] in a line: Cardiovascular parameters (ABP, HR, lead II ECG) after single bolus injection in dogs. It is filed as in vivo. Particulars: six hours, doses up to 0.01 mg/kg (0.2 mg/m^2).
Series [7] in a line: Toxicity studies: HR and ECGs of dogs after single or repeated administration. It is filed as in vivo. Particulars: doses up to 0.05 mg/kg (1 mg/m^2).
Series [8] concerns patients with advanced and refractory solid tumours. Details: species or system human. Particulars: in vivo. On the procedure: The completed PM1183-A-001-08 phase I trial evaluated i.v. lurbinectedin in human patients for the first time, when infused over one hour (h) every three weeks (q3 wk) in 31 patients with advanced and refractory solid tumours. Among these, 15 (48.4%) patients were treated at the defined recommended dose (RD). The RD for phase II studies was defined at a PM01183 dose of 4.0 mg/m^2 q3 wk-equivalent to a 7.0 mg flat dose (FD) q3 wk. […] No signs of cumulative toxicity were observed.

A short description of series [9]: Pooled logistic regression analysis of phase II data, review of recommended dose. It counts as in vivo, human. Particulars: q3 wk, BSA-based dosing, to limit severe myelosuppression. As for the experimental part:
Owing to these findings, all actively recruiting and planned studies now use BSA-based dosing to limit severe myelosuppression. The original RD of 4.0 mg/m^2 q3 wk has been reviewed and reduced to 3.2 mg/m^2 q3 wk for the same reason.

A further series has as its system CYP isoforms. Nature of the series: In vitro metabolism studies with human microsomes. Particulars: followed by CYP2E1, CYP2D6 and CYP2C9. It counts as in vitro ADME. An excerpt:
The estimated contribution of the other CYP isoenzymes to the PM01183 metabolism is considered to be negligible. Therefore, concomitant drugs which induce or inhibit any of these cytochromes, especially CYP3A4, should be carefully monitored or avoided, whenever is possible.

Series [10] in a line: PM1183-A-008-13 phase I study, interaction with aprepitant. The note with it: in the presence of aprepitant (CYP3A4 inhibitor), patients. It is filed as in vivo, human. An excerpt:
PM01183 clearance was reduced by 50%, approximately, in the presence of aprepitant. Although all patients eventually recovered, the use of aprepitant is currently forbidden in all PM01183 studies.

The conditions of series [11]: rat, in vivo.
For series [12] the following is noted: dog, in vivo.
The subject of series [13] is patients with metastatic SCLC. The note with it: cited from earlier work.
A further series in a line: in vivo. Particulars: rodent, iv.
The subject of another series is patients with ES-SCLC. The note with it: IMpower133; cited from earlier work.

In the case of `COc1ccc2[nH]c3c(c2c1)CCN[C@]31CS[C@@H]2c3c(OC(C)=O)c(C)c4c(c3[C@H](COC1=O)N1[C@@H]2[C@H]2c3c(cc(C)c(OC)c3O)C[C@@H]([C@@H]1O)N2C)OCO4` [PM01183, lurbinectedin], the IC50 with A-549 was determined as 1.3 nM; with A2780, 1.6 nM; with BT-474, 1.3 nM; with HCT 116, 65 nM; in the series with HT-29, 2.4 nM; in the series on IGROV-1, 9.8 nM. In addition, the IC50 worked out at 2 nM with LoVo; 1.7 nM in the series with MCF-7; 3.5 nM in the series with MDA-MB-231; 1.1 nM with MiaPaca-2; 0.54 nM in the series with NCl-H23; 1.6 nM in the series with NCl-H460. Besides, the IC50 with PANC-1 is 2.9 nM; in series [1], approximately 0.1 nM. Also, the T/C % is on record as 5% with LXFL 529 lung xenograft; 58% in series [2]; 40% in [3]; 0% in the series with MX-1 breast xenograft; 34% in the series with A2780 ovary xenograft; 61% in [4]. The compound further came in with a T/C % in the series on PC-3 prostate xenograft of 65%. The “antitumour activity against bladder, pancreas and prostate xenografts” value in [5] is “more moderate antitumour profile”. Further, in series [5] (different time points), the “antitumour activity against breast, lung and ovarian xenografts” value is “statistically significant antitumour activity (p<0.05)”. In [6], the “effects on heart, ABP, lead II ECG variables (PR, QT, QTcF, QTcV, QRS), ECG gross morphology or rhythm” value is given as “no effects”. Further, the “electrophysiological alterations in HR and ECGs” value in series [7] is recorded as “no electrophysiological alterations”. The “dose-limiting toxicity (DLT) at the RD” value in series [8] (human) was “grade 4 thrombocytopenia”. Moreover, the “inter-patient variability in the area under the curve [AUC]” value in series [8] (human) is recorded as more than 50.0%. For the same compound, in series [8] (human), the “recommended dose, equivalent flat dose (FD)” value turned out to be 7.0 mg. Also, the “recommended dose (RD) for phase II studies” value in series [8] (human, iv) was determined as 4.0 mg/m^2. Moreover, the PK dose linearity result in series [8] was “linearity across all explored doses”. In addition, in series [8], the “tolerability at the RD” value is “generally well tolerated”. The “recommended dose, reviewed and reduced” value in series [9] is given as 3.2 mg/m^2. Further, the “major CYP isoform involved in the metabolism” value in the series with CYP isoforms is listed as “CYP3A4”. In addition, the clearance reduction in [10] is reported as approximately 50%. Further, the “main target organs of toxicity” value was “bone marrow and the liver” in [11]; “bone marrow and the liver” in series [12]. The median response duration in series [13] (independent review committee, 95% CI 4.9, 6.4) is reported as 5.1 months; in series [13] (investigator assessment, 95% CI 4.1, 6.4), 5.3 months. Moreover, the ORR in [13] (independent review committee, 95% CI 22%, 40%) is recorded as 30%; in series [13] (investigator assessment RECIST 1.1, 105 patients, 3.2 mg/m^2 i.v. every 21 days, 95% CI 26%, 45%), 35%. In “in vivo”, the MTD was 0.3 mg/kg.
In the case of “atezolizumab: humanized IgG1 monoclonal antibody that targets human PD-L1”, the “most common adverse reaction reported in ≥20% of patients” value in the series with patients with ES-SCLC is “fatigue/asthenia, nausea, alopecia, constipation and decreased appetite”.
